According to ChEMBL document CHEMBL5223082, “Alkyl-Aryl-Vancomycins: Multimodal Glycopeptides with Weak Dependence on the Bacterial Metabolic State” (J Med Chem, 2021):
Values after ≈ are worked out from the molar mass of the structure shown.

Experiments:
Staphylococcus aureus [1] = experiment: Antibacterial activity against Vancomycin-resistant Staphylococcus aureus 4 assessed as inhibition of bacterial growth incubated for 18 to 24 hrs by CLSI microbroth dilution method; type: functional; conditions: time 18-24 hrs
Staphylococcus aureus [2] = experiment: Antibacterial activity against Vancomycin-resistant Staphylococcus aureus 12 assessed as inhibition of bacterial growth incubated for 18 to 24 hrs by CLSI microbroth dilution method; type: functional; conditions: time 18-24 hrs
Enterococcus [3] = experiment: Antibacterial activity against Vancomycin-resistant Enterococci NR30909 assessed as inhibition of bacterial growth incubated for 18 to 24 hrs by CLSI microbroth dilution method; type: functional; conditions: time 18-24 hrs
Staphylococcus aureus [4] = experiment: Antibacterial activity against Vancomycin-resistant Staphylococcus aureus 1 assessed as inhibition of bacterial growth incubated for 18 to 24 hrs by CLSI microbroth dilution method; type: functional; conditions: time 18-24 hrs
[5] = Induction of hemolysis in human erythrocytes incubated for 1 hr by microtiter plater reader analysis; type: toxicity, cell-based, Erythrocyte
Enterococcus [6] = experiment: Antibacterial activity against Vancomycin-resistant Enterococci ATCC 51559 assessed as inhibition of bacterial growth incubated for 18 to 24 hrs by CLSI microbroth dilution method; type: functional; conditions: time 18-24 hrs
Enterococcus [7] = experiment: Antibacterial activity against Vancomycin-resistant Enterococci NR30903 assessed as inhibition of bacterial growth incubated for 18 to 24 hrs by CLSI microbroth dilution method; type: functional; conditions: time 18-24 hrs
[8] = Induction of hemolysis in human erythrocytes at 250 uM incubated for 1 hr by microtiter plater reader analysis; type: toxicity, cell-based, Erythrocyte; conditions: read-out: Activity
Enterococcus [9] = experiment: Antibacterial activity against Vancomycin-resistant Enterococci ATCC 51575 assessed as inhibition of bacterial growth incubated for 18 to 24 hrs by CLSI microbroth dilution method; type: functional; conditions: time 18-24 hrs
Staphylococcus aureus [10] = experiment: Antibacterial activity against Methicillin-resistant Staphylococcus aureus ATCC 33591 assessed as inhibition of bacterial growth incubated for 18 to 24 hrs by CLSI microbroth dilution method; type: functional; conditions: time 18-24 hrs
Enterococcus [11] = experiment: Potency index, ratio of Vancomycin MIC to test compound MIC for antibacterial activity against Vancomycin-resistant Enterococci NR30909; type: functional, NR 30909
Enterococcus [12] = experiment: Potency index, ratio of Vancomycin MIC to test compound MIC for antibacterial activity against Vancomycin-resistant Enterococci ATCC 51559; type: functional
Staphylococcus aureus [13] = experiment: Potency index, ratio of Vancomycin MIC to test compound MIC for antibacterial activity against Vancomycin-resistant Staphylococcus aureus 4; type: functional
Staphylococcus aureus [14] = experiment: Potency index, ratio of Vancomycin MIC to test compound MIC for antibacterial activity against Vancomycin-resistant Staphylococcus aureus 12; type: functional
Enterococcus [15] = experiment: Potency index, ratio of Vancomycin MIC to test compound MIC for antibacterial activity against Vancomycin-resistant Enterococci NR30903; type: functional, NR 30903
Enterococcus [16] = experiment: Potency index, ratio of Vancomycin MIC to test compound MIC for antibacterial activity against Vancomycin-resistant Enterococci ATCC 51575; type: functional
Staphylococcus aureus [17] = experiment: Potency index, ratio of Vancomycin MIC to test compound MIC for antibacterial activity against Vancomycin-resistant Staphylococcus aureus 1; type: functional

SMILES | MIC (Staphylococcus aureus [1]) [µM] | MIC (Staphylococcus aureus [2]) [µM] | MIC (Enterococcus [3]) [µM] | MIC (Staphylococcus aureus [4]) [µM] | HC50 at 1 h [5] [µM] | MIC (Enterococcus [6]) [µM] | MIC (Enterococcus [7]) [µM] | hemolysis at 1 h, 250 µM [8] [%] | MIC (Enterococcus [9]) [µM] | MIC (Staphylococcus aureus [10]) [µM] | Ratio (Enterococcus [11]) | Ratio (Enterococcus [12]) | Ratio (Staphylococcus aureus [13]) | Ratio (Staphylococcus aureus [14]) | Ratio (Enterococcus [15]) | Ratio (Enterococcus [16]) | Ratio (Staphylococcus aureus [17])
CN[C@H](CC(C)C)C(=O)N[C@H]1C(=O)N[C@@H](CC(N)=O)C(=O)N[C@H]2C(=O)N[C@H]3C(=O)N[C@H](C(=O)N[C@H](C(=O)O)c4cc(O)cc(O)c4-c4cc3ccc4O)[C@H](O)c3ccc(c(Cl)c3)Oc3cc2cc(c3O[C@@H]2O[C@H](CO)[C@@H](O)[C@H](O)[C@H]2O[C@H]2C[C@](C)(NCc3ccc(C(=O)NCCC[N+](C)(C)Cc4cccc5ccccc45)cc3)[C@H](O)[C@H](C)O2)Oc2ccc(cc2Cl)[C@H]1O | 14.9 | 3.7 | 7.4 | 29.8 | > 250 | > 30 | 14.9 | 0 | > 30 | 0.9 |  |  |  |  |  |  | 
CN[C@H](CC(C)C)C(=O)N[C@H]1C(=O)N[C@@H](CC(N)=O)C(=O)N[C@H]2C(=O)N[C@H]3C(=O)N[C@H](C(=O)N[C@H](C(=O)O)c4cc(O)cc(O)c4-c4cc3ccc4O)[C@H](O)c3ccc(c(Cl)c3)Oc3cc2cc(c3O[C@@H]2O[C@H](CO)[C@@H](O)[C@H](O)[C@H]2O[C@H]2C[C@](C)(NCc3ccc(C(=O)NCCC[N+](C)(C)Cc4ccccc4)cc3)[C@H](O)[C@H](C)O2)Oc2ccc(cc2Cl)[C@H]1O | 30.5 | 30.5 | > 30 | 30.5 | > 250 | > 30 | > 30 | 0 | > 30 | 0.9 |  |  |  |  |  |  | 
CN[C@H](CC(C)C)C(=O)N[C@H]1C(=O)N[C@@H](CC(N)=O)C(=O)N[C@H]2C(=O)N[C@H]3C(=O)N[C@H](C(=O)N[C@H](C(=O)O)c4cc(O)cc(O)c4-c4cc3ccc4O)[C@H](O)c3ccc(c(Cl)c3)Oc3cc2cc(c3O[C@@H]2O[C@H](CO)[C@@H](O)[C@H](O)[C@H]2O[C@H]2C[C@](C)(NCc3ccc(C(=O)NCCC[N+](C)(C)Cc4ccc(-c5ccccc5)cc4)cc3)[C@H](O)[C@H](C)O2)Oc2ccc(cc2Cl)[C@H]1O | 7.3 | 3.7 | 3.7 | 7.3 | > 250 | 14.7 | 7.3 | 0 | 14.7 | 0.5 | 47 | 47 | 47 | 47 | 47 | 47 | 47
CCCCCCCCCCCCCCNC(=O)C[N+](C)(C)CCCNC(=O)c1ccc(CN[C@@]2(C)C[C@H](O[C@H]3[C@H](Oc4c5cc6cc4Oc4ccc(cc4Cl)[C@@H](O)[C@@H](NC(=O)[C@@H](CC(C)C)NC)C(=O)N[C@@H](CC(N)=O)C(=O)N[C@H]6C(=O)N[C@H]4C(=O)N[C@H](C(=O)N[C@H](C(=O)O)c6cc(O)cc(O)c6-c6cc4ccc6O)[C@H](O)c4ccc(c(Cl)c4)O5)O[C@H](CO)[C@@H](O)[C@@H]3O)O[C@@H](C)[C@H]2O)cc1 | 1.8 | 1.8 | 0.9 | 1.8 | 35 | 1.8 | 0.9 |  | 1.8 | 1.8 | 780 | 780 | 780 | 780 | 780 | 780 | 780
CN[C@H](CC(C)C)C(=O)N[C@H]1C(=O)N[C@@H](CC(N)=O)C(=O)N[C@H]2C(=O)N[C@H]3C(=O)N[C@H](C(=O)N[C@H](C(=O)O)c4cc(O)cc(O)c4-c4cc3ccc4O)[C@H](O)c3ccc(c(Cl)c3)Oc3cc2cc(c3O[C@@H]2O[C@H](CO)[C@@H](O)[C@H](O)[C@H]2O[C@H]2C[C@](C)(NCc3ccc(-c4ccc(Cl)cc4)cc3)[C@H](O)[C@H](C)O2)Oc2ccc(cc2Cl)[C@H]1O | 2.1 (≈ 3.46 µg/mL) | 4.2 (≈ 6.93 µg/mL) | 4.2 (≈ 6.93 µg/mL) | 4.2 (≈ 6.93 µg/mL) |  | 4.2 (≈ 6.93 µg/mL) | 4.2 (≈ 6.93 µg/mL) |  | 2.1 (≈ 3.46 µg/mL) | 0.5 (≈ 0.825 µg/mL) |  |  |  |  |  |  | 
